Data taken from patent publication US11306051B2, “Use of vanillin derivatives as a preservative, preservation method, compounds, and composition” (L'OREAL, priority 2009, dated 2022).

Columns and labels:
Assay type in all cases: cell-based
[1] = system: Escherichia coli (Ec) ATCC 8739; assay: Challenge Test (artificial contamination) of cosmetic formula, E. coli; settings: 2% compound in cosmetic formula; inoculation about 10^6 cfu/gram; 7 days contact at 22° C.±2° C. in darkness; <200 cfu = sensitivity threshold
Procedure: (§1) The antimicrobial efficacy of a compound of formula (I) was evaluated via the Challenge Test or artificial contamination method. The method of the challenge test consists of an artificial contamination of the sample with collection microbial strains (bacteria, yeasts and moulds) and evaluation of the number of revivable microorganisms seven days after the inoculation. […] [table] […] After 7 days of contact time between the microorganisms and the product at 22° C.±2° C. and in darkness, decimal dilutions are performed and the number of revivable microorganisms remaining in the product is counted.

[2] = system: Pseudomonas aeruginosa (Pa) ATCC 19429; assay: Challenge Test (artificial contamination) of cosmetic formula, P. aeruginosa; settings: 2% compound in cosmetic formula; inoculation about 10^6 cfu/gram; 7 days contact at 22° C.±2° C. in darkness; <200 cfu = sensitivity threshold
Procedure: as §1

[3] = system: Enterococcus faecalis (Ef) ATCC 33186; assay: Challenge Test (artificial contamination) of cosmetic formula, E. faecalis; settings: 2% compound in cosmetic formula; inoculation about 10^6 cfu/gram; 7 days contact at 22° C.±2° C. in darkness; <200 cfu = sensitivity threshold
Procedure: as §1

[4] = system: Candida albicans (Ca) ATCC 10231; assay: Challenge Test (artificial contamination) of cosmetic formula, C. albicans; settings: 2% compound in cosmetic formula; inoculation about 10^6 cfu/gram; 7 days contact at 22° C.±2° C. in darkness; <200 cfu = sensitivity threshold
Procedure: as §1

[5] = system: Aspergillus niger (An) ATCC 6275; assay: Challenge Test (artificial contamination) of cosmetic formula, A. niger; settings: 2% compound in cosmetic formula; inoculation about 10^6 cfu/gram; 7 days contact at 22° C.±2° C. in darkness
Procedure: The antimicrobial efficacy of a compound of formula (I) was evaluated via the Challenge Test or artificial contamination method. The method of the challenge test consists of an artificial contamination of the sample with collection microbial strains (bacteria, yeasts and moulds) and evaluation of the number of revivable microorganisms seven days after the inoculation. […] [table] The gram-negative bacteria (Escherichia coli and Pseudomonas aeruginosa), gram-positive bacteria (Enterococcus faecalis), yeast (Candida albicans) and mould (Aspergillus niger) are seeded in the subculturing medium, respectively, the day before the inoculation for the bacteria and the yeast, and five days before the inoculation for the mould. for the mould, the spores are collected by washing the agar with 6 to 7 ml of harvesting solution and the suspension is recovered in a sterile tube or flask. After homogenizing the microbial suspension, 0.2 ml of inoculum is introduced into each pill bottle (the suspensions are used pure: between 1×10^8 and 3×10^8 cfu per ml) and the microbial suspension in the 20 g of product (=cosmetic formula) is homogenized thoroughly using a spatula. […] After 7 days of contact time between the microorganisms and the product at 22° C.±2° C. and in darkness, decimal dilutions are performed and the number of revivable microorganisms remaining in the product is counted.

With `CCOc1cc(CCC(C)=O)ccc1O` [Compound] the “No. of cfu/gram of product at T7 days, E. coli” value [1] was <200 cfu/gram of product, the “No. of cfu/gram of product at T7 days, P. aeruginosa” value [2] was <200 cfu/gram of product and the “No. of cfu/gram of product at T7 days, E. faecalis” value [3] was <200 cfu/gram of product. The “No. of cfu/gram of product at T7 days, C. albicans” value [4] was <200 cfu/gram of product and the “No. of cfu/gram of product at T7 days, A. niger” value [5] was 3.4 × 10^5 cfu/gram of product.
